Values quoted from earlier work, collected in patent US20190274964A1, “NEW IMPROVED COMPOSITION OF RACECADOTRIL” (JOHNSON & JOHNSON CONSUMER INC., priority 2016, published 2019).

Tested on: castor-oil induced diarrhea
Conditions: rats

Row | Structure (SMILES) | Inhibition of castor-oil induced diarrhea | Cumulative stool weight following challenge with castor oil (pre-treatment p.o.) | Time to onset (pre-treatment p.o., dose-response relationship could not be established) | Protection against diarrhea as measured by cumulative stool weight and time to onset (intravenous administration, most prominent during first two hours following challenge)
1 | CC(=O)SCC(Cc1ccccc1)C(=O)NCC(=O)OCc1ccccc1 (centres unmarked) [Racecadotril, benzyl N-[3-(acetylthio)-2 benzylpropanoyl] glycinate] | inhibit castor-oil induced diarrhea | reduction in cumulative stool weight | significantly delayed | 
2 | O=C(O)CNC(=O)C(CS)Cc1ccccc1 (centres unmarked) [thiorphan] | inhibit castor-oil induced diarrhea |  |  | dose-dependent protection against diarrhea
